Source: patent US7074789B2, “Kinase inhibitors” (Amgen Inc., priority 1999, dated 2006)

Experiments:
Type in all cases: biochemical
FGFR1 = biological target: T1, FGFR1 (Homo sapiens, UniProt P11362); test: Kinase inhibition assay (33P transfer), FGFR1; details: read-out: FGFR1-1
T1 construct: Kinases are expressed as either kinase domains or full length constructs; made in house

Itk = biological target: T2, Itk (Homo sapiens, UniProt Q08881); test: Kinase inhibition assay (33P transfer), Itk; details: Table 3; read-out: Itk-1
T2 construct: Kinases are expressed as either kinase domains or full length constructs; made in house
T2 sequence (Q08881 1-620): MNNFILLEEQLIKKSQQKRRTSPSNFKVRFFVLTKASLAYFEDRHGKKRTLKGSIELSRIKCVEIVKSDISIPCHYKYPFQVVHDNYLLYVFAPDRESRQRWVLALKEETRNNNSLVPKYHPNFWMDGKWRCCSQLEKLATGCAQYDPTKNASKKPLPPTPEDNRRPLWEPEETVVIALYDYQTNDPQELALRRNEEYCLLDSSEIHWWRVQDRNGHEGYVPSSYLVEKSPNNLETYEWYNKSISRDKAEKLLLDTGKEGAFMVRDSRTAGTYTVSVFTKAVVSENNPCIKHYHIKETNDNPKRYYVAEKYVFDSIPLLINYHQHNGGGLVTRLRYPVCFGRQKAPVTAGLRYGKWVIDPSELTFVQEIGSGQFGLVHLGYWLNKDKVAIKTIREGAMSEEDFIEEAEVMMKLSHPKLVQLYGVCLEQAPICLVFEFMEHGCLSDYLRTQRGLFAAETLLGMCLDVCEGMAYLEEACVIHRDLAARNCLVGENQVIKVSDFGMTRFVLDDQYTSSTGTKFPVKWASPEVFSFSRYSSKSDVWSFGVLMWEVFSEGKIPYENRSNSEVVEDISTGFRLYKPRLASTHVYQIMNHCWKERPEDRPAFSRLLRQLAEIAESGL
How it was run: (§1)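 IC50: inhibitor concentration lowering 33P incorporation into immobilised substrate by 50%. Label transferred from ATP to poly(Glu,Tyr) 4:1 or poly(Arg,Ser) 3:1 is measured after a 0.5% phosphoric acid wash by liquid scintillation.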

Lyn = biological target: T3, Lyn (Homo sapiens, UniProt P07948); test: Kinase inhibition assay (33P transfer), Lyn; details: Table 6, Lyn-1 kinase inhibition class
T3 construct: Kinases are expressed as either kinase domains or full length constructs; made in house
How it was run: as §1

Ret-1 = biological target: T4, Ret-1 (Homo sapiens, UniProt P07949); test: Kinase inhibition assay (33P transfer), Ret; details: Table 6, Ret-1 kinase inhibition class
T4 construct: Kinases are expressed as either kinase domains or full length constructs; made in house

IGFR-1 = biological target: T5, IGFR-1 (Homo sapiens, UniProt P08069); test: Kinase inhibition assay (33P transfer), IGFR-1; details: Table 2, kinase inhibition class
T5 construct: Kinases are expressed as either kinase domains or full length constructs; made in house

PDGFRB = biological target: T6, PDGFRB (Homo sapiens, UniProt P09619); test: Kinase inhibition assay (33P transfer), PDGFRB; details: read-out: PDGFRB-1
T6 construct: Kinases are expressed as either kinase domains or full length constructs; made in house

Tek = biological target: T7, Tek (Homo sapiens, UniProt Q02763); test: Kinase inhibition assay (33P transfer), Tek; details: read-out: Tek-1
T7 construct: Kinases are expressed as either kinase domains or full length constructs; made in house
How it was run: as §1

ErbB4 = biological target: T8, ErbB4 (Homo sapiens, UniProt Q15303); test: Kinase inhibition assay (33P transfer), ErbB4; details: read-out: ErbB4-1
T8 construct: Kinases are expressed as either kinase domains or full length constructs; made in house

Lck = biological target: T9, Lck (Homo sapiens, UniProt P06239); test: Kinase inhibition assay (33P transfer), Lck; details: Table 3; read-out: Lck-1
T9 construct: Kinases are expressed as either kinase domains or full length constructs; made in house
How it was run: (§2)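 Measured by scintillation: radiolabelled phosphate added by tagged recombinant kinases to poly(Glu,Tyr) 4:1 or poly(Arg,Ser) 3:1 attached to microtiter wells, counted once free label was washed away with 0.5% phosphoric acid.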

EGFR = biological target: T10, EGFR (Homo sapiens, UniProt P00533); test: Kinase inhibition assay (33P transfer), EGFR; details: Table 2, kinase inhibition class; read-out: EGFR-1
T10 construct: Kinases are expressed as either kinase domains or full length constructs; made in house
How it was run: as §1

Src = biological target: T11, Src (Homo sapiens, UniProt P12931); test: Kinase inhibition assay (33P transfer), Src; details: Table 6, Src-1 kinase inhibition class
T11 construct: Kinases are expressed as either kinase domains or full length constructs; made in house
How it was run: as §1

Kdr = biological target: T12, Kdr (Homo sapiens, UniProt P35968); test: Kinase inhibition assay (33P transfer), Kdr; details: Table 3; read-out: KDR-1
T12 construct: Kinases are expressed as either kinase domains or full length constructs; made in house
How it was run: as §2

c-Met = biological target: T13, c-Met (Homo sapiens, UniProt P08581); test: Kinase inhibition assay (33P transfer), c-Met; details: Table 2, kinase inhibition class; read-out: Met-1
T13 construct: Kinases are expressed as either kinase domains or full length constructs; made in house
How it was run: as §1

T6 sequence (P09619 33-1106, species assumed): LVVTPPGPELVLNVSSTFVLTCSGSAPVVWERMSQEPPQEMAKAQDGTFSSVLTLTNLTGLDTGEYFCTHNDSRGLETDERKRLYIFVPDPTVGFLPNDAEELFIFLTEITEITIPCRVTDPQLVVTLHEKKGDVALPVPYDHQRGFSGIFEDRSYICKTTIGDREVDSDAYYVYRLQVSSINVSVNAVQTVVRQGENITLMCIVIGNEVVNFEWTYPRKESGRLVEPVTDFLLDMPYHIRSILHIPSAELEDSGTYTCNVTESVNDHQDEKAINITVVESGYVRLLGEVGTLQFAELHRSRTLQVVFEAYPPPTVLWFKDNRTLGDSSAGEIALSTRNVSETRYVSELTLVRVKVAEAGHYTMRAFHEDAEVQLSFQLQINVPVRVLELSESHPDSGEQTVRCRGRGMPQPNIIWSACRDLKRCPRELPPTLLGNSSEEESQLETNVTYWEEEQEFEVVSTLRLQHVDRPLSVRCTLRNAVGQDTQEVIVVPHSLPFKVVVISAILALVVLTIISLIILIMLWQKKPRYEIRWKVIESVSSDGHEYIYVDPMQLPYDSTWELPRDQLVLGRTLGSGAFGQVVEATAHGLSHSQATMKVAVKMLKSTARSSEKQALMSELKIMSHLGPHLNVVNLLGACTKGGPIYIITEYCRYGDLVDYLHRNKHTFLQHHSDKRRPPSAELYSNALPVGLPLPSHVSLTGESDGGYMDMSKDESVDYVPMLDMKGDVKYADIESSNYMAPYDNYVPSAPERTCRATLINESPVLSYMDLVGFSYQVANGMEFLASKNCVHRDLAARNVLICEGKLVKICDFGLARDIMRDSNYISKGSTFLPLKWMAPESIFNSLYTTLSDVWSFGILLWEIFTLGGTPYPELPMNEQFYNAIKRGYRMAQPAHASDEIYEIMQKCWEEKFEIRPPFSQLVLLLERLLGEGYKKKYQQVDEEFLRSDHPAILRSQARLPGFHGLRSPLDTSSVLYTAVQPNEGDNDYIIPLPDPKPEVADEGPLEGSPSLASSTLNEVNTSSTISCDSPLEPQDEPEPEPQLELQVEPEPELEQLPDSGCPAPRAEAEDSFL
T5 sequence (P08069 31-1367): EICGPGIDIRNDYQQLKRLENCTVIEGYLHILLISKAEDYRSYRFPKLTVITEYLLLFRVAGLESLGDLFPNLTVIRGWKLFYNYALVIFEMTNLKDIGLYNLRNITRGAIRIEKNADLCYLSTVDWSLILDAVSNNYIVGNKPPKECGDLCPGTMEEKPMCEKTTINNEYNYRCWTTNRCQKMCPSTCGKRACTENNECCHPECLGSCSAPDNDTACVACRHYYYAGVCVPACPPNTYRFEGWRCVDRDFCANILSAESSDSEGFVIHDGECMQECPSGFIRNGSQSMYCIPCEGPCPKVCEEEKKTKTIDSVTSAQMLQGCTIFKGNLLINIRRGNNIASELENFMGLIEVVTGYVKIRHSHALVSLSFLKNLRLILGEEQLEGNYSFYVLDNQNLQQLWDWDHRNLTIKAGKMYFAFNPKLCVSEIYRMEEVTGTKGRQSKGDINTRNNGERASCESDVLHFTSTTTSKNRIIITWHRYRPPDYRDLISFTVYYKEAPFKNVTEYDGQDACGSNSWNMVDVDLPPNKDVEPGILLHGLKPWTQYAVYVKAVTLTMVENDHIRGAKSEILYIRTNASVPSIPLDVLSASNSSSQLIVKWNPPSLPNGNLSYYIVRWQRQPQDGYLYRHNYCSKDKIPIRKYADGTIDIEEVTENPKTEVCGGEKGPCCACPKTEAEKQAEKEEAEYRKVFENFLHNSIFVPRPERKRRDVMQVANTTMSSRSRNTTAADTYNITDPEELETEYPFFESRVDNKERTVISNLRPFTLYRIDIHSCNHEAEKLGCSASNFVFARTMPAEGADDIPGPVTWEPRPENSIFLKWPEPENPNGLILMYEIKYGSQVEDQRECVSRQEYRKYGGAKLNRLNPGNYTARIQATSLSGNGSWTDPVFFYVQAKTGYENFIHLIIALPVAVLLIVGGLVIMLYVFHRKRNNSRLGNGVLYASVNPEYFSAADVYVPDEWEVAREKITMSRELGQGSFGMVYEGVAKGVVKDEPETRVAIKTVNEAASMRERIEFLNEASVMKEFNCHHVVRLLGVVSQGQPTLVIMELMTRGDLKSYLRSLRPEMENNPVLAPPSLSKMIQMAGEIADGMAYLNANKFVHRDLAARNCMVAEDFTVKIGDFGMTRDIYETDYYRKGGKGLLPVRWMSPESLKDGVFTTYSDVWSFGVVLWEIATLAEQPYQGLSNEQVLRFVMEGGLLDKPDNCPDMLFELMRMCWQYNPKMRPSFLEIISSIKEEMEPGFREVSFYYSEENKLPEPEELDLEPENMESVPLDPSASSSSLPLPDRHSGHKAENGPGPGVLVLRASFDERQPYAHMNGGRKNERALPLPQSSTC
T7 sequence (Q02763 23-1124, species assumed): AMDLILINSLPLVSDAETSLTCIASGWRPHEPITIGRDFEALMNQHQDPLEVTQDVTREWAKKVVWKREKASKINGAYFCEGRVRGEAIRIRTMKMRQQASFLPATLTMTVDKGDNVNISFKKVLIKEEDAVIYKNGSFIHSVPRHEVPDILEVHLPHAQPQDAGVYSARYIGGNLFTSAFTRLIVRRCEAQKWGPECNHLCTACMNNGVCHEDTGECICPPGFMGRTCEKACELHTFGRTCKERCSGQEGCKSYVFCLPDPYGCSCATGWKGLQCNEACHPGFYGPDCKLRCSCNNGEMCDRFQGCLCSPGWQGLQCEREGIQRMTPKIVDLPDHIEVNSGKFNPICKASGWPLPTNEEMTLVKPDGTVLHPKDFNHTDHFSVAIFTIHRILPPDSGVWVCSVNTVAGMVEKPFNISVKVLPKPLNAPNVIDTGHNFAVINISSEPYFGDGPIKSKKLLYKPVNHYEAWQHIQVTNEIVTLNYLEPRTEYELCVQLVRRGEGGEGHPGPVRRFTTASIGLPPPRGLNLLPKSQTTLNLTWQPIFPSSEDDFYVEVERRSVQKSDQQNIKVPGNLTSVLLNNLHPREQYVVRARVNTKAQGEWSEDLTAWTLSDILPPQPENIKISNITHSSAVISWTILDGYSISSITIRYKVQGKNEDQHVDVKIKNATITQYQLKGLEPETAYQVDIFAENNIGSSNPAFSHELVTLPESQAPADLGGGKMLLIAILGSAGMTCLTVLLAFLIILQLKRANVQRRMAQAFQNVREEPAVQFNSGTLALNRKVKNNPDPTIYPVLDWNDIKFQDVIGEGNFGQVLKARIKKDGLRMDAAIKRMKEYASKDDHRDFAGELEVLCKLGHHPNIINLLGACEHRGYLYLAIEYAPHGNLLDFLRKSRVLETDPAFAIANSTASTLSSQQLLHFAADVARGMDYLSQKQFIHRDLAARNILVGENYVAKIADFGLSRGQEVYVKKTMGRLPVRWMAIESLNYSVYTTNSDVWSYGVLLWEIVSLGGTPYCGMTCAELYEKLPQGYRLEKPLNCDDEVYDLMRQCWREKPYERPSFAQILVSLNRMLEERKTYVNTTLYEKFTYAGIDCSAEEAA
T3 sequence (P07948 whole entry, species assumed, the tested form may be a part): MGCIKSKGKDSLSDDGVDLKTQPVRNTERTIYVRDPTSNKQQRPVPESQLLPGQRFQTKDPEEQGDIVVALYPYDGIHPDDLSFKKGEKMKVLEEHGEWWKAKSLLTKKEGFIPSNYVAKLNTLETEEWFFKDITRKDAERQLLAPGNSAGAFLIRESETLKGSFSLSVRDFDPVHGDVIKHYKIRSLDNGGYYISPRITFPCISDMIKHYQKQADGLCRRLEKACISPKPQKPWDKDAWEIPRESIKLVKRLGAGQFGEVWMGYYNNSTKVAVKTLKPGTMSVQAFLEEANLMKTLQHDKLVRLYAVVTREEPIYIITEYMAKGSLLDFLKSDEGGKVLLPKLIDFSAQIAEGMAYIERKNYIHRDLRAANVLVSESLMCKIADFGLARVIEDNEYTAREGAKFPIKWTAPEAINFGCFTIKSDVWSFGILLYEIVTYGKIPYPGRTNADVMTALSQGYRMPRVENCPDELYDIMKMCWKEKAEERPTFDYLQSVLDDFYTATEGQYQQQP
T11 sequence (P12931 whole entry, species assumed, the tested form may be a part): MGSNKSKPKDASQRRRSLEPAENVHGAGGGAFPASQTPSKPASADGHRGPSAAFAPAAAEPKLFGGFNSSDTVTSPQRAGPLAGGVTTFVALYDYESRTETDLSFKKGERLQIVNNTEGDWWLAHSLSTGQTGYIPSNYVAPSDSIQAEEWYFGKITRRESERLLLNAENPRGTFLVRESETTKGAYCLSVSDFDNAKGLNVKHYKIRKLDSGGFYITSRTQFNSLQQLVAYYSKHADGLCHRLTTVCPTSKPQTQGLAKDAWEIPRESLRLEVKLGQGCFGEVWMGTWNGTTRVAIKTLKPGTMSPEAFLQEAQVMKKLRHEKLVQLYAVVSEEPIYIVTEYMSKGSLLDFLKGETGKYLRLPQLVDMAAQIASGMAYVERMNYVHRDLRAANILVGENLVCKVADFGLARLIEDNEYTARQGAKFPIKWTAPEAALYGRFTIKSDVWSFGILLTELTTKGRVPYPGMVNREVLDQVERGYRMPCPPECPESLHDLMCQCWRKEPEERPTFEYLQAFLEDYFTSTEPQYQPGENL
T9 sequence (P06239 whole entry, species assumed, the tested form may be a part): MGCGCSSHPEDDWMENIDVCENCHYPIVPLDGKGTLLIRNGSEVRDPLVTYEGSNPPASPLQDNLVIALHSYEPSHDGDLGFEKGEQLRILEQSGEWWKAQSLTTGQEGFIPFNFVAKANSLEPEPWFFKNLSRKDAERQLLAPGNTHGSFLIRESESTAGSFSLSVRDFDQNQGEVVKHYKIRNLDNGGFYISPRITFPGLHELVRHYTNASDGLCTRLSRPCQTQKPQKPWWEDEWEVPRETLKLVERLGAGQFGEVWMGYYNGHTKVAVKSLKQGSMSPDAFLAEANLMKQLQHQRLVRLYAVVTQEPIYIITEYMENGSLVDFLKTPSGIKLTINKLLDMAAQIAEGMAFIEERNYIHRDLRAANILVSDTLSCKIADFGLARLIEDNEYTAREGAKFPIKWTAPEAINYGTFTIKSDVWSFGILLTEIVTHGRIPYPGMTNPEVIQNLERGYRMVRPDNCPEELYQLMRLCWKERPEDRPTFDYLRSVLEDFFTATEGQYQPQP

| IC50 (FGFR1) [µM] | IC50 (Itk) [µM] | IC50 (Lyn) [µM] | IC50 (Ret-1) [µM] | IC50 (IGFR-1) [µM] | IC50 (PDGFRB) [µM] | IC50 (Tek) [µM] | IC50 (ErbB4) [µM] | IC50 (Lck) [µM] | IC50 (EGFR) [µM] | IC50 (Src) [µM] | IC50 (Kdr) [µM] | IC50 (c-Met) [µM] | SMILES |
| --- | --- | --- | --- | --- | --- | --- | --- | --- | --- | --- | --- | --- | --- |
| 0.982 to 5.89 | > 11 | > 11 | > 11 | 5.89 to 8.59 | 0.982 to 5.89 | > 11 | 5.89 to 8.59 | > 11 | > 11 | > 11 | < 0.982 | > 11 | COc1cc(Nc2ncnc(Nc3nc4ccccc4n3C)n2)cc(OC)c1OC [Compound 938] |
| 0.869 to 5.21 | > 9.77 | < 0.869 | < 0.869 | 5.21 to 7.6 | < 0.869 | > 9.77 | 0.869 to 5.21 | 0.869 to 5.21 | 0.869 to 5.21 | < 0.869 | < 0.869 | 7.6 to 9.77 | COc1cc(Nc2ncnc(Nc3ccc(C)c(NS(C)(=O)=O)c3)n2)cc(OC)c1OC [Compound 305] |
| 6.01 to 8.76 | 1 to 6.01 | < 1 | > 11.3 | > 11.3 | 1 to 6.01 | 1 to 6.01 | 1 to 6.01 | < 1 | < 1 | 1 to 6.01 | < 1 | 1 to 6.01 | COc1cc(Nc2ncnc(N3CCCC4CCCCC43)n2)cc(OC)c1OC (stereo not drawn) [Compound 314] |
| < 0.94 | 0.94 to 5.64 | < 0.94 | < 0.94 | 5.64 to 8.23 | < 0.94 | 0.94 to 5.64 | 0.94 to 5.64 | 0.94 to 5.64 | 0.94 to 5.64 | 0.94 to 5.64 | < 0.94 | < 0.94 | COc1cc(Nc2ncnc(N3c4ccc(F)cc4CCC3C)n2)cc(OC)c1OC (stereo not drawn) [Compound 298] |
| 0.982 to 5.89 | 5.89 to 8.59 | > 11 | > 11 | < 0.982 | > 11 | > 11 | > 11 | 0.982 to 5.89 | 8.59 to 11 | > 11 | < 0.982 | > 11 | COCCOc1ccc(Nc2ncnc(-n3c(N)nc4ccccc43)n2)cc1OC [Compound 287] |
| > 9.14 | > 9.14 | > 9.14 | < 0.812 | > 9.14 | < 0.812 | > 9.14 | > 9.14 | > 9.14 | > 9.14 | > 9.14 | < 0.812 | > 9.14 | COc1ccc2c(c1)c(CCNC(C)=O)cn2-c1ncnc(Nc2cc(OC)c(OC)c(OC)c2)n1 [Compound 339] |
| 5.89 to 8.59 | > 11 | 5.89 to 8.59 | > 11 | 0.982 to 5.89 | < 0.982 | > 11 | > 11 | > 11 | 8.59 to 11 | > 11 | < 0.982 | > 11 | COc1ccc2c(ccn2-c2ncnc(Nc3cc(OC)c(OC)c(OC)c3)n2)c1 [Compound 196] |
| > 13 | > 13 | > 13 | > 13 | 1.15 to 6.91 | > 13 | > 13 | > 13 | 10.1 to 13 | < 1.15 | > 13 | 6.91 to 10.1 | > 13 | C#Cc1cccc(Nc2ncnc(Nc3ccc(OC)c(OC)c3)n2)c1 [Compound 116] |
| < 1.05 | 1.05 to 6.33 | 1.05 to 6.33 | < 1.05 | < 1.05 | 1.05 to 6.33 | > 11.9 | 1.05 to 6.33 | 1.05 to 6.33 | 1.05 to 6.33 | 1.05 to 6.33 | < 1.05 | < 1.05 | COc1ccc(Nc2ncnc(Nc3cc(-c4ccco4)n[nH]3)n2)cc1OC [Compound 337] |
| < 1.26 | 7.59 to 11.1 | < 1.26 | 1.26 to 7.59 | 1.26 to 7.59 | < 1.26 | > 14.2 | 1.26 to 7.59 | 1.26 to 7.59 | < 1.26 | < 1.26 | < 1.26 | 11.1 to 14.2 | Cc1cccc(Nc2ncnc(Nc3ccc4[nH]ccc4c3)n2)c1 [Compound 110] |
| 7.25 to 9.33 | > 9.33 | < 0.829 | 4.97 to 7.25 | 0.829 to 4.97 | 4.97 to 7.25 | 4.97 to 7.25 | > 9.33 | 0.829 to 4.97 | < 0.829 | 0.829 to 4.97 | 0.829 to 4.97 | 4.97 to 7.25 | COc1cc(Nc2ncnc(Nc3ccc4c(ccn4Cc4ccccc4)c3)n2)cc(OC)c1OC [Compound 178] |
| 1 to 6.01 | > 11.3 | < 1 | < 1 | 1 to 6.01 | < 1 | 8.76 to 11.3 | 1 to 6.01 | 1 to 6.01 | < 1 | < 1 | < 1 | > 11.3 | COc1ccc(Nc2ncnc(Nc3cc(OC)c(OC)c(OC)c3)n2)cc1O [Compound 931] |
